Data reported in patent US20170156315A1, “METHODS AND COMPOSITIONS OF GRANULE FORMULATIONS” (AgroFresh Inc., priority 2010, published 2017).
Several values for one entry are separate records, joined by “and”; a condition that tells them apart may be missing. Equal values may be shown once.

Test system: rice plants
Experiment: Treatment of rice plants in open fields, yield
Assay type: in vivo
Details: rice field trial, single application of 50 g a.i./hectare 1-MCP with sample 7-3
Text: Assessment of Improvement to Crop Yield—Each treated plot is compared to an appropriate untreated control plot. The outcome is reported as “DY %” (Delta Yield Percent), which is defined as follows:
where YT=yield of the treated plot, and where YU=yield of the untreated plot. For example, DY of 10% means the treated plot has yield that is 10% higher than the untreated plot. Negative Delta Yield means that the treated rice has lower yield than the untreated crop.
Granule formulations of samples 7-3 and 7-4 are used to treat rice plants in open fields. Typical amount of 1-MCP treated range from 10 g active ingredient (a.i.)/hectare (or 4 g a.i./acre) to 100 g a.i./hectare (or 40 g a.i/acre).
Optimum phonological stages of the rice plants range from maximum tillering through grain filling (for example at least one of: meiosis, complete open of flower, and grain filling). Typically only a single treatment of 1-MCP is performed before harvest, but multiple treatments of 1-MCP before harvest can also be performed. Treatment(s) of 1-MCP on rice plants show yield increase ranging from 14% to 28%, depending on the amount of 1-MCP and stage of treatment(s). Data of a field trial using single application of 50 g a.i./hectare 1-MCP with sample 7-3 (a granule formulation containing 1% 1-MCP) are shown in Table 9

SMILES: CC1=CC1 [Sample 1-MCP, 1-methylcyclopropene]
- Yield (kg/ha) (individual treatments 8-1 to 8-4): 7340 kg/ha and 7450 kg/ha and 7865 kg/ha and 7715 kg/ha
- Mean (kg/ha) (mean of treatments 8-1 to 8-4): 7592.5 kg/ha
